Assay [1] deals with HeLa cells. The assay can be described thus: DNA replication rate (BrdU incorporation ELISA). Format: cell-based, human. The protocol:
(§1) HeLa and HCT116 cells were plated in black 96-well plates. After cells were allowed to recover for 24 hours NVX-412 or CPT was added in fresh growth medium. After 24 hours of incubation a chemiluminescent BrdU Incorporation ELISA (Roche Applied Science, Penzberg, Germany) was performed with half of the plates according to the manufacturer’s protocol. Cells in the remaining plates were allowed to recover for 24 hours in normal growth medium before DNA replication was measured (wash-out experiment). To check whether a possible decline in DNA replication rate is not simply due to lower cell numbers because of cell death induction, the proportion of viable cells was determined in parallel by a MTT-based cytotoxicity assay according to the manufacturer’s protocol (EZ4U, Biomedica, Vienna, Austria). Colorimetric (at 492 and 620 nm) and chemiluminescent measurements were performed using a FLUOstar OPTIMA (BMG Labtech, Ortenberg, Germany).
Background: Dividing cells build labelled thymidine or BrdU into new DNA.

The subject of assay [2] is HCT116 cells. The assay can be described thus: DNA replication rate (BrdU incorporation ELISA). Format: cell-based, human. Here is the method:
as §1

The test system of assay [3] is HeLa cells. Kind of assay: Morphology assay / quantification of cell sizes. Conditions: 48 hours treatment. Format: cell-based, human. Here is the method:
(§2) To investigate potential morphological changes upon treatment with NVX-412, HCT116, HeLa and HT-29 cells were plated in 6-well plates and incubated for up to 72 hours with the indicated concentrations of NVX-412, DMSO as vehicle control and 1 µM Camptothecin (CPT) as a positive control for apoptotic morphology. Control experiments were carried out to ensure that morphological changes are not due to differences in confluency. After 24, 48 and 72 hours pictures were taken with an Olympus IX71 inverted microscope and camera system (Olympus Color View III) at 20× magnification.
(§3) Cell sizes were quantified using specialized imaging software (ImageJ 1.45d, US NIH, Bethesda, MD, USA). Average areas of all cells present within 5 different fields of view per sample were determined after 48 hours treatment with 0, 0.15 and 1 µM NVX-412.

For the next assay, the system named is HT-29 cells. The assay can be described thus: Morphology assay / quantification of cell sizes. It counts as cell-based, human. The note with it: HT-29, 48 hours treatment. Here is the method: as §2, §3
In assay [4] the test system is HCT116 cells. Kind of assay: Morphology assay / quantification of cell sizes. Format: cell-based, human. The note with it: HCT116, 48 hours treatment, 0.15 and 1 µM. The protocol: as §2, §3
Assay [5] has as its system Central Nervous System Cancer cell lines. Kind of assay: NCI-60 DTP human tumor cell line screen (sulphorhodamine B). It counts as cell-based. The note with it: 5 cell lines, 48 hours incubation. Here is the method:
(§4) NVX-412 was included in an anti-cancer activity screen by the National Cancer Institute (NCI). The compound was tested against 59 different human tumor cell lines, representing leukemia, melanoma and cancers of the lung, colon, brain, ovary, breast, prostate, and kidney (for a complete list of cell lines please refer to Shoemaker et al. 2006 [5]). The methodology of this in vitro cancer screen is described in detail on the NCI website (http://dtp.nci.nih.gov/branches/btb/ivclsp.html). Briefly, the human tumor cell lines of the cancer screening panel were grown in RPMI 1640 medium containing 5% FCS and 2 mM L-glutamine in 96-well plates at densities ranging from 5,000 to 40,000 cells/well. After 24 hours the experimental drug was added at 5 concentrations plus control and cells were incubated for additional 48 hours. For determination of the growth-inhibitory effect of the compound a sulphorhodamine B assay was performed that employs a chemical fixation step at the end of drug treatment and a subsequent staining for 10 minutes. After a washing step, absorbance was determined at 515 nm. Three different dose response parameters are then calculated: growth inhibition of 50% (GI50), which is the drug concentration resulting in a 50% reduction in the net protein increase, the drug concentration resulting in total growth inhibition (TGI) and the LC50, indicating a net loss of cells following treatment.

A further assay relates to Renal Cancer cell lines. Described as above. Format: cell-based. Conditions: 8 cell lines, 48 hours incubation. Here is the method:
as §4

A further assay relates to Breast Cancer cell lines. The assay is described as above. It counts as cell-based. Conditions: 5 cell lines, 48 hours incubation. Here is the method: as §4
Assay [6] relates to Non-Small Cell Lung Cancer cell lines. The assay is described as above. Format: cell-based. Conditions: 9 cell lines, 48 hours incubation. The protocol:
as §4

For the next assay, the system named is Melanoma cell lines. The assay is described as above. The note with it: 9 cell lines, 48 hours incubation. It counts as cell-based. The protocol:
as §4

The test system of another assay is Colon Cancer cell lines. Described as above. The note with it: 7 cell lines, 48 hours incubation. It counts as cell-based. The protocol: as §4
Assay [7] relates to Prostate Cancer cell lines. Described as above. Conditions: 2 cell lines, 48 hours incubation. Format: cell-based. Here is the method:
as §4

A further assay deals with Leukemia cell lines. The description is as above. It counts as cell-based. The note with it: 6 cell lines, 48 hours incubation. Here is the method: as §4
For assay [8], the system named is Ovarian Cancer cell lines. The description is as above. Format: cell-based. The note with it: 6 cell lines, 48 hours incubation. Here is the method: as §4

With `O=C(NNc1nc2cc(F)ccc2n2cccc12)c1cnccn1` [NVX-412, Pyrazine-2-carboxylic acid N’- (7-fluoro-pyrrolo[1,2-α]quinoxalin-4-yl)-hydrazide-oxalic acid co-crystal], the “DNA replication rate (BrdU incorporation)” value with HeLa cells [1] (24 hours treatment) is recorded as “reduction of DNA replication”; in the assay with HCT116 cells [2] (HCT116, 24 hours treatment) it was “reduction of DNA replication”. Besides, the “DNA replication rate after recovery (wash-out)” value is recorded as “the rate increased to normal levels” in the assay on HeLa cells [1] (24 hours treatment then 24 hours in normal growth medium) and “the rate increased to normal levels” with HCT116 cells [2] (HCT116, 24 hours treatment then 24 hours in normal growth medium). For the same compound, the Cell sizes result in the assay on HeLa cells [3], with HT-29 cells and in the assay on HCT116 cells [4] was “highly significant increase in cell sizes” in each case. The IC50 – broadly, the point on the concentration scale where inhibition reaches its midpoint – in assay [5] is 167 nM; in the assay with Renal Cancer cell lines, 182 nM; with Breast Cancer cell lines, 266 nM; in assay [6] it was 174 nM; in the assay on Melanoma cell lines it was 214 nM; in the assay on Colon Cancer cell lines it was 169 nM. Further, the IC50 was 276 nM in [7], 62 nM in the assay on Leukemia cell lines and 377 nM in assay [8].

The record behind these values is article PMC3441706 (PLoS ONE, 2012).
